According to PMC5041077, “Metabolic profile and safety of piperlongumine” (Scientific Reports, 2016):
Values belong to the molecule of their own block, whether it stands above or below them.

Tests used:
human liver microsomes [1] = assay: P450 reaction phenotyping by selective human enzyme inhibitors; assay type: in vitro ADME; conditions: PPL at S50/2, 10 min incubation
Method: (§1) This study was performed by evaluating the PPL metabolism and the produced metabolites in the presence of these specific inhibitors. […] The incubation protocol was the same for all inhibitors, except for orphenadrine, which was pre-incubated with all incubation constituents at 37 °C for 15 min before the reaction was initiated by the addition of substrate. The concentration of PPL used in this study corresponded to its S50/2. […] In order to enhance the sensibility one sample was pooled from 4 single reactions. Sample preparations and GC-MS analysis were performed according to assay previous described. The results were expressed as % of remain activity and compared with control sample lacking the inhibitors.
(§2) Phenotyping study at 50 min. In order to evaluate the CYP isoforms involved in M4 formation, a similar study as described in the main text was performed, except by the time of incubation of 50 min (Fig. S13).

epoxide hydrolase = assay: Epoxide hydrolase involvement on M2 catalysis (valproic acid); assay type: in vitro ADME, human; conditions: valproic acid 550 μM, PPL 63.8 µM, 50 min, 2 mg/mL HLM, with NADPH
Method: Epoxide hydrolase involvement on M2 catalysis. To evaluate the epoxide hydrolase involvement on M2 catalysis (Fig. S14), PPL (63.8 µM) was incubated alone or in the presence of valproic acid (550 μM), an epoxide hydrolase inhibitor. The incubation was carried out for 50 minutes at 37°C with 2 mg/mL HLM. Sample preparations and chromatographic analysis were performed according to assay described in phenotyping study session. The results were expressed as % of remain activity and compared with control sample with the absence of the inhibitor.

human liver microsomes [2] = assay: Time course of metabolite formation; assay type: in vitro ADME; conditions: PPL at S50, 2 mg/mL HLM
Method: The formation of metabolites was investigated through the application of three distinct mass spectrometry instruments. The incubation time was set at 50 min and 2 mg/mL of microsomal protein was employed in these experiments. The increase in the incubation time and microsomal protein aimed to produce a higher amount of metabolites. The concentration of PPL was 283.6 μM. After metabolism reaction, in order to favor a higher recovery of metabolites from microsomal medium liquid-liquid extraction was performed using 1 mL of ethyl acetate as the extractor solvent. The samples (n = 10) were shaken for 10 min at 1500 rpm using an orbital agitator and centrifuged for 5 min at 2860 × g. After that, 750 μL of supernatant was collected, and each one was pooled from ten single reactions. Next, the samples were evaporated to dryness by using a gentle stream of compressed air. To facilitate the identification of compounds that have hydroxyl groups, after sample preparation and before GC-MS analysis, silylation reactions were performed in the extracted samples. The residues were reconstituted in 50 μL of pyridine and 200 μL of BSTFA solution containing 2% TMCS. Following, the samples were slightly agitated and then incubated in a water bath at 75 °C for 120 min. […]
The incubation time was evaluated in different times (5, 10, 20, 40 and 50 min) in order to investigate the formation of metabolites. […]

CYP2C9 = CYP2C9 (Homo sapiens, UniProt P11712); assay: in vitro
CYP3A4 = assay: P450 reaction phenotyping by selective human enzyme inhibitors; assay type: in vitro ADME; conditions: human, human liver microsomes, probe PPL (formation of metabolite M2)
Method: as §1, §2

[3] = tested on: recombinant human CYP (rhCYP) isoforms; assay: P450 reaction phenotyping by rhCYP isoforms; assay type: in vitro ADME; conditions: 50 min incubation
Method: The capacity of selected major human P450 isoforms to metabolize PPL was screened using human recombinant isoenzymes. Briefly, PPL (S50 concentration) was added into a 200 μL incubation mixture containing P450 isoform (50 pmol/mL for CYP3A4, CYP1A2, CYP2C9, 2B6, 2D6 and 2C19; 25 pmol/mL for CYP2C8 and […]; final concentrations), NADPH regeneration system solution A (1.3 mM NADP^+ and 3.3 mM glucose-6-phosphate), NADPH regeneration system solution B (0.4 U/mL glucose-6-phosphate dehydrogenase), potassium phosphate buffer pH 7.4 (100 mM), except for CYP2C9 where the phosphate buffer was substituted by tris buffer pH 7.5 (100 mM), maintaining for 50 min in shaking water bath. In order to enhance the sensibility one sample was pooled from 4 single reactions. PPL metabolites were analyzed by a GC-MS as described previously. The MS peak areas of PPL metabolites were recorded to determine the contributions of the P450 enzymes.
as §2

Sequence of CYP2C9 (P11712 whole entry): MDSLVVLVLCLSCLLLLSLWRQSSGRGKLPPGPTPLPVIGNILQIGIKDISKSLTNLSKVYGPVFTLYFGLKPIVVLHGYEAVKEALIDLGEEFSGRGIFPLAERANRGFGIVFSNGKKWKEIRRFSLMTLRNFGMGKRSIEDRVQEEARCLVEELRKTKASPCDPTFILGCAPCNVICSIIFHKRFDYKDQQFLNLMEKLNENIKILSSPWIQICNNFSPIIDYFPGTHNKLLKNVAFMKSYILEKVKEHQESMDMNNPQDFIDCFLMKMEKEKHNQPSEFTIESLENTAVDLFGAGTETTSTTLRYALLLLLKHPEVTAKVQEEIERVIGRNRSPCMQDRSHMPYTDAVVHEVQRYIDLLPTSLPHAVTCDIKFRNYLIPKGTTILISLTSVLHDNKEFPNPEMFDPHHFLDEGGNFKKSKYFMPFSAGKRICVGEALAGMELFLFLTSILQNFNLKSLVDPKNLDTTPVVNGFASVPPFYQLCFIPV

SMILES: O=c1cc(-c2ccccc2)oc2c1ccc1ccccc12 [α-naphthoflavone]
inhibition of the formation of metabolite M1 (human liver microsomes [1]; α-naphthoflavone (CYP1A2 inhibitor) 1 μM): strong inhibition

SMILES: CCCC(CCC)C(=O)O [valproic acid]
amount of metabolite M4 produced in presence of valproic acid (epoxide hydrolase): same amount produced

SMILES: O=C(O)Cc1ccccc1Nc1c(Cl)cccc1Cl [Diclofenac, diclofenac]
Km (CYP2C9): 47 µM

SMILES: CC(=O)N1CCN(c2ccc(OCC3COC(Cn4ccnc4)(c4ccc(Cl)cc4Cl)O3)cc2)CC1 (centres unmarked) [ketoconazole]
inhibition at 10 min, 2 µM (CYP3A4): 83%
inhibitory effect on the formation of metabolite M3 (human liver microsomes [1]; ketoconazole 2 μM): significant inhibitory effect

The next lines start with results.

incubation time of maximum production of the metabolite (human liver microsomes [2]): 20 min
SMILES: COc1cc(/C=C/C(=O)N2CCC3OC3C2=O)cc(OC)c1OC (centres unmarked) [M2]

incubation time after which the metabolite starts to be produced (lag-time) (human liver microsomes [2]): > 40 min
SMILES: COc1cc(/C=C/C(=O)N2CCC(O)C(O)C2=O)cc(OC)c1OC (centres unmarked) [M4]
recombinant isoforms that contributed to M4 formation [3]: CYP2C19, CYP2D6, CYP2E1, CYP2B6 and CYP2C8
